Results reported in article PMC2822059 (Nature chemical biology, 2010).

Columns and labels:
[1] = system: acetylated histones (AcH3K18), Jurkat cells; assay: Immunoblot for acetylated histones in treated cells; type: cell-based, human; settings: 24 hours, time- and dose-dependent
[2] = system: acetylated alpha-tubulin (AcTub), Jurkat cells; assay: Immunoblot for acetylated alpha-tubulin in treated cells; type: cell-based, human; settings: 24 hours, time- and dose-dependent
H976Y HDAC4 = settings: mutant versus wild type; cited from earlier work

| SMILES | hyperacetylation of Class I deacetylase targets (bulk histones) [1] | hyperacetylation of HDAC6 target α-tubulin [2] | increased affinity for H976Y HDAC4 gain of function mutant (H976Y HDAC4) [fold] |
| --- | --- | --- | --- |
| O=C(/C=C/c1ccc(C(=O)N/N=C/c2ccc(O)c(O)c2O)cc1)NO [pandacostat] | confers hyperacetylation | confers hyperacetylation | – |
| O=C(/C=C/c1ccc(CN(CCO)CCc2c[nH]c3ccccc23)cc1)NO [LAQ-824] | – | – | 100 |
